This data set concerns CYP3A4. Description: CYP3A4 mRNA expression by RT-qPCR in spheroid-shaped FLC-4 cells (example, MICRO-SPACE). Type of data set: cell-based, human. From the text: A plurality of culture chambers 10a are formed on the bottom culture surface of each well 21a. Each culture chamber 10a includes culture rooms 11a each having the equivalent diameter D of 200 μm and the height H of 100 μm. The width W of each wall 12a is 10 μm.
As cells to be cultured, FLC-4 cells which are established hepatocyte cell lines […] were used.
As a culture medium, a DMEM/F 12 culture medium containing 10% fetal bovine serum (FBS) was used. A cell suspension was adjusted at a cell seeding density of 16×10^5 cells/mL.
The cells were cultured in a CO2 incubator for 10 to 11 days. The culture medium was replaced once every three days.
The total amount of old culture medium was removed from each well by using a pipette (culture medium removing process).
A test solution or a control solution was added to each well (test solution addition process).
The cells were incubated in a CO2 incubator for eight hours, 24 hours, or 48 hours at 37° C. (contact process).
The test solution was obtained in such a manner that the cytokine was dissolved at each concentration shown in Table 1 in a DMEM/F12 solution (DMEM/E12 FBS(−)) containing no serum.
In an RNA extraction, one sample corresponding to two wells 21a of the culture plate 1a was extracted according to the protocol of NucleoSpin® RNAII (Macherey-Nagel). Only the portion to be subjected to Dnase treatment was modified, and DNaseI recombinant, RNase-free (Roche, Branchburg, N.J., USA) was used. The total RNA underwent reverse transcription reaction using High-Capacity cDNA Reverse Transcription Kits (Applied. Biosystems, Foster City, Calif., USA) and an attached random hexamer primer, and the first strand cDNA was synthesized.
The analysis was made using a total amount of 20 μL of reaction liquid containing 9.6 μL of EagleTaq Master Mix with ROX (Roche, Branchburg, N.J., USA), 0.96 μL of 20× Assays-on-Demand™ Gene Expression Assay Mix (Applied Biosystems), 7.1 μL of sterilized MiliQ water, and 1.8 μL of cDNA diluted by a factor of 5, and the reaction liquid was measured by Real-time PCR.

Take `COc1cc2ncnc(Nc3ccc(F)c(Cl)c3)c2cc1OCCCN1CCOCC1` [Gefitinib, reference compound]: the “value of the metabolic function of CYP3A4 (mRNA expression level), third test solution versus second test solution” value (10 ng/mL EGF + 5 μM Gefitinib vs 10 ng/mL EGF alone, FIG. 20) is given as “three times higher”. Under “10 ng/mL EGF + 5 μM Gefitinib, first to third test solutions compared”, the “determination of the drug's effect on the drug-metabolizing function of the cytochrome P450” value is “restores the drug-metabolizing function of the cytochrome P450”. Turning to interleukin-1β, the “gene expression level of CYP3A4 versus contact time” value (spheroid-shaped established hepatocyte cell line, contact for 0, four and eight hours, FIG. 9) was “decreases over time”.
